# Test results taken from a melting point compilation (Tetko et al.; mined from patent text by program, amines drawn as free bases though some values may be those of a salt).
row,melting point,Compound
1,243 to 245 °C,O=c1c2c(c3cccnc3n1-c1cccc(Cl)c1)OC(CO)C2 (stereo not given)
2,53 to 55 °C,CCCCCCc1cc(-c2cccs2)n[nH]1
3,185 to 187 °C,O=C(O)CC(O)(Cn1cncn1)c1ccc(F)cc1F (stereo not given)
4,241 to 243 °C,Cc1c(C(=O)O)c[nH]c1C(=O)c1ccccc1
5,128 to 130 °C,CCCNC(=O)CCCCCn1cnc2c(N)nc3ccccc3c21
6,96.5 to 98.5 °C,CCOc1ccc2ccc(F)c(F)c2c1F
7,115 to 120 °C,CC(c1ccccc1)N1CC(CCl)C(c2ccccc2)(c2ccccc2)C1=O (stereo not given)
8,65 to 66 °C,CCCCn1c(C)c(C)cc(NC(=O)OCc2ccccc2)c1=O
9,165 to 167 °C,COc1ccc(C(=O)NCc2c(C=O)cc(C)n2CCNC(C)=O)cc1OC
10,298 to 300 °C,CCCC1=NN=C2C1=C1C=CC=CN1C(=O)C2C#N (stereo not given)
11,129 to 131 °C,COc1ccc(Cn2ccn(C3CCc4ccccc4C3)c2=S)cc1OC (stereo not given)
12,40 to 45 °C,O=C(c1c(F)cccc1F)N1COCN(c2ccc(S(=O)C(F)(C(F)(F)F)C(F)(F)F)cc2F)C1=O (stereo not given)
13,133 to 135 °C,COc1ccc(C2=NN(C)C(=O)CC2)cc1
14,110 to 112 °C,COc1ccc(C2=NN(C)C(=O)[C@H]3CCCC[C@@H]23)cc1OC (relative stereo)
15,188 to 190 °C,C#CC1C2=C(c3ccc(OCc4ccccc4[N+](=O)[O-])cc3N1C(=O)Oc1ccccc1)C(O[Si](C)(C)C(C)(C)C)CCC2 (stereo not given)
16,149 to 151 °C,O=C(Nc1ccc2c(c1)NCCC2)c1cc2cc(F)ccc2n1Cc1cccc(F)c1
17,120 °C,Cc1cccc(C(=O)O)c1N(C)S(=O)(=O)c1ccc(OCCCNC(=O)c2ccc3c(c2)OCO3)cc1
18,111 to 112 °C,CSc1nc(Cl)nc2sc(C)cc12
19,174 °C,CCCS(=O)(=O)c1cccc(-c2nc(=O)c3ccccc3s2)n1
20,> 270 °C,CC(C)(C)[Si](C)(C)Oc1ccc2cc3c(cc2c1)C(=O)c1cc2cc(O[Si](C)(C)C(C)(C)C)ccc2cc1C3=O
21,185 to 187 °C,CNC(=O)c1ccccc1Nc1nc(Nc2c(OC)ccc3c2C(=O)N(C)CCC3)ncc1Cl
22,241 to 243 °C,O=C(O)c1cnc2cc(C3CCCCC3)ccc2c1O
23,99 to 100 °C,CSc1nc(C)ccc1NC(=O)CCCCCCCCSc1nc2ccccc2o1

row,melting point,Compound
1,117 to 120 °C,Cn1c(C(F)(F)F)cc(=O)n(-c2cc(C=O)c(Cl)cc2Cl)c1=O
2,181 to 182 °C,CC(C)c1ccc(-c2coc3cc(O)c(O)cc3c2=O)cc1
3,187 °C,COC(=O)Cc1csc(NS(=O)(=O)c2cccc(Cl)c2C)n1
4,149 to 152 °C,Cc1cccc(C)c1N1CCc2c(C)nc3ccccc3c21
5,289 to 291 °C,O=C(O)c1ccc(COc2ccc3cc(-c4ccc(-c5ccccc5)[nH]4)ccc3c2)c(C(=O)O)c1
6,327 to 329 °C,Cc1cccc2oc(Nc3ccc(C(=O)O)cc3)nc12
7,107 °C,CC(C)(C)OC(=O)NC1(c2ccccc2)CCN(CCC2(c3ccc(F)c(F)c3)CN(C(=O)c3ccccc3)CCO2)CC1 (stereo not given)
8,95 to 97 °C,CCOC(=O)c1sc(=O)[nH]c1C(F)(F)C(F)(F)F
9,72 to 74 °C,CS(=O)(=O)c1ccc(-n2nc(C(F)(F)F)cc2-c2ccc(-c3ccsc3)cc2)cc1F
10,96 to 98 °C,CCOC(=O)CN1C(=O)C(C(C)C)N(C(C)=O)C=C1c1ccccc1 (racemic)
11,168 to 169 °C,CCN1C(=O)C(C)(C)C(=O)N(C)c2cc(OCCCn3c(=O)c(Br)cc4ccccc43)ccc21
12,65 to 66 °C,CCCCCCC(C(=O)O)c1cccc(Oc2ccccc2C)c1O (stereo not given)
13,150 to 151 °C,CCCCOC(=O)c1cc2cccc(O)c2[nH]1
14,131 °C,CC(=O)n1cc(Cl)c(-c2cccc3c2OC(F)(F)O3)n1
15,115 to 118 °C,OC(CSc1ncnc2[nH]ncc12)CN1CCN(C(c2ccc(Cl)cc2)c2ccc(Cl)cc2)CC1 (stereo not given)
16,202 to 204 °C,COc1ccc(-c2ccc(C(=O)Nc3ccc4cc(CN5CCCC5)cnc4c3)cc2)cc1
17,75 to 82 °C,C[C@H](Cc1ccc2c(c1)OC(C(=O)O)(C(=O)OCCc1ccccc1)O2)NC[C@H](O)c1cccc(Cl)c1 (stereo not given in full)
18,272 °C,CS(=O)(=O)c1cnc(-c2nn(Cc3ccccc3F)c3ncccc23)nc1N
19,169 to 172 °C,CS(=O)(=O)Nc1cccc(Nc2nc(OCC3CCCCC3)c3nc[nH]c3n2)c1
20,39 to 42 °C,CCOC(=O)C(=O)c1ccc(OCCCCCCc2cccc(OCc3ccccc3)c2OCc2ccccc2)cc1
21,95 to 97 °C,CN(C)S(=O)(=O)c1ccc([N+](=O)[O-])cc1C(F)(F)F
22,42 to 43 °C,CCCCCCCCCCCCCCCNC(=O)OCCOCCOCCOC(=O)N(Cc1ccccn1)C(C)=O
23,193 to 194 °C,COc1ccc(-c2nc(-c3ccccc3)c3ncc(Cl)cc3n2)cc1

row,melting point,Compound
1,196 to 198 °C,O=C(NCc1ccn(-c2cc3nc(C(=O)O)c(=O)[nH]c3cc2Cl)c1)Nc1cccc2ccccc12
2,74 to 75 °C,O=C(C#Cc1ccncc1)c1ccccc1
3,> 250 °C,O=C1Nc2c(Cl)cccc2C12COc1cc3c(cc12)CCO3 (stereo not given)
4,114 to 117 °C,CC1(CN(c2ccc(Cl)cc2)S(C)(=O)=O)SCCS1
5,113 to 119 °C,CNC(=O)C(NC(=O)C(CC(C)C)C(S)CC(=O)OC)C(C)OCc1ccccc1 (stereo not given)
6,128 °C,O=C1c2cccc(NC(=S)Nc3cnccn3)c2C2CC3(CCN12)SCCS3 (stereo not given)
7,197 to 199 °C,O=C1N(Cc2ccccn2)c2ccccc2C12COc1c(Cl)cc3c(c12)OCCO3 (stereo not given)
8,62 to 63 °C,O=Cc1ccc2ccccc2c1OCc1ccccc1
9,147 to 149 °C,CC(=Cc1ccc(-n2cnc3c2CCCC3)cc1)[N+](=O)[O-]
10,133 to 136 °C,CC(=O)Nc1ccc(OCC(O)CNC2CCc3ccccc3C2)cc1 (stereo not given)
11,160 °C,CCCCc1nc(Cl)c(CC(=O)OCC)c(Cc2ccc(-c3ccccc3-c3nnn[nH]3)cc2)n1
12,82.5 to 83 °C,COc1ccc(/C=C(\C#N)c2ccccn2)cc1OC1CCCC1
13,128 °C,CCCCc1nc(SCCCCCC(=O)O)c(C(=O)O)n1Cc1cc2c(cc1Cl)OCO2
14,> 250 °C,O=C1CC(c2cccc(-n3ccnn3)c2)=Nc2cc(O)c(-c3ccccc3F)cc2N1
15,184 °C,O=S(=O)(Nc1cnc(-n2cnnn2)nc1NCc1ccccc1)c1ccc(Br)cc1
16,159 to 160 °C,CCCNC(=O)NS(=O)(=O)c1cc2c(cc1OC)OCCC2CNC(=O)c1cc(Cl)ccc1OC (stereo not given)
17,105 to 108 °C,Nc1cnccc1CNC(=O)C1Cc2ccccc2N1S(=O)(=O)c1ccc(-c2cccc(C(F)(F)F)c2)cc1 (stereo not given)
18,263 to 265 °C,CN1COc2cc3c4c(cccc4c21)C(=O)N(O)C3=O
19,142 to 143 °C,Cc1oc(-c2cccs2)nc1COc1ccc(CON=C(CCC(=O)O)c2ccccc2)cc1
20,135 to 136 °C,CCCCCCCN(CCCCCSc1nc(-c2ccccc2)c(-c2ccccc2)[nH]1)C(=N)Nc1ccccc1
21,> 250 °C,CCOC(=O)c1sc(-c2ccc(C#N)cc2)nc1CO
22,198 °C,N#Cc1cnn2c(C(F)(F)F)cc(-c3ccc(F)cc3)nc12
23,74 to 76 °C,COC(=O)Cc1ccc2c(c1)C(=O)c1ccccc1CO2

row,melting point,Compound
1,71.9 to 74.2 °C,CCN(CC)Cc1[nH]c(C)c(-c2ccnc(Nc3ccc(F)cc3)n2)c1C
2,239 to 240 °C,O=C1Nc2cccnc2N(C(=O)Cl)c2ccccc21
3,99 to 101 °C,CNC(=S)NCCCSc1nnnn1C
4,120 to 121 °C,CC[C@@]1(C)OC(=O)C(c2ccc(F)cc2)=C1c1ccc(S(C)(=O)=O)cc1
5,129 to 131 °C,O=c1ccc(-c2c(-c3ccccc3)nn3ccccc23)nn1C1CCCCC1=Cc1nnn[nH]1 (stereo not given)
6,77.5 to 78 °C,CC(C)Cc1cc(OCc2ccccc2)c2c(c1)OC(C)(C)CC2=O
7,112 °C,Nc1cc(C(=O)c2ccccc2)ccc1N1CCCC1
8,52 to 54 °C,COCc1cc(-c2ncc(C(F)(F)F)cc2Cl)ccc1Cl
9,126 °C,O=C(NOCCBr)Nc1ccc(Cl)c(Cl)c1
10,75 to 81 °C,COc1ccc(CN(CCN(C)C)c2cccc(/C=C/C(=O)O)n2)cc1
11,68 to 70 °C,CCOC(=O)Cn1[nH]c(=O)c2ccccc2c1=O
12,151 to 153 °C,CC(C)(C)OC(=O)NC1CCCCCC=CC2CC2(C(=O)NS(=O)(=O)C2CC2)NC(=O)C2CC(OC(=O)c3cccc(C#N)c3)CN2C1=O (stereo not given)
13,194 to 198 °C,CCOc1ccc(NS(=O)(=O)c2cccc3c(N(C)C)cccc23)nn1
14,157 to 159 °C,CO/N=C(\C(=O)N[C@@H]1C(=O)N[C@@H]1COC(=O)/C(=N\OC)c1csc(NC(=O)CCl)n1)c1csc(NC(=O)CCl)n1 (relative stereo)
15,244 to 246 °C,O=C(NCc1ccccc1)NNC(=O)c1ccc(Cl)cc1
16,153 to 156 °C,CN1CCC(c2c[nH]c3ccc(NC(=O)c4ccc5ccccc5c4)cc23)CC1
17,168 to 169 °C,CCOCc1nc2cnc3cccnc3c2n1CC1(O)CCOCC1
18,175 to 177 °C,COc1c(C2CCN(CCCCNC(=O)c3ccc(-c4ccc(Cl)s4)nc3)CC2)ccc2c1CCCC2
19,185 to 186 °C,CCC(C#N)=C1CCN(c2ccc(N3C[C@H](CNC(C)=O)OC3=O)cc2F)CC1
20,192 °C,COc1ccc(/C=C/C(=O)C2C(=O)CC(c3ccc(OC)cc3)C([N+](=O)[O-])C2c2ccco2)cc1 (stereo not given)
21,170 to 171 °C,O=C(O)c1ncc(Br)cc1Br

row,Compound,melting point
1,Clc1ccc(C2=C[C@H](CN3CC=C(c4ccccc4)CC3)CCC2)cc1,138 to 141 °C
2,NCCc1c[nH]c2ccc(OCCCCc3ccccc3)cc12,130 to 132 °C
3,NN1CCC[C@H]1C(=O)O,153 to 154 °C
4,CN(C(=O)Cc1ccc(Cl)c(Cl)c1)[C@@H]1CCC(=O)C[C@H]1N1CCCC1 (relative stereo),148 to 149 °C
5,O=C1NCN(c2ccc(F)cc2)C12CCN(C1CCC(c3ccc(F)cc3)(c3ccc(F)cc3)CC1)CC2,237 to 240 °C
